Patent publication US4192944A, “Optionally substituted 4-oxo-4H-pyrido[1,2-a]pyrimidine-3-N-(1H-tetrazol-4-yl)carboxamides and their use as antiallergy agents” (priority 1978, dated 1980)
Where two headings read alike, the source gives them in different places.

Experiments:
[1] = cited from earlier work
[2] = test system: reagin-mediated Passive Cutaneous Anaphylaxis (PCA); test: reagin-mediated rat Passive Cutaneous Anaphylaxis (PCA) screening test; assay type: in vivo
Description: The reagin-mediated rat Passive Cutaneous Anaphylaxis (PCA) screening test used to evaluate the present compounds is generally regarded as one of the best animal models for use in predicting the antiallergy activity of test compounds in man. This screen provides a measure of the effectiveness of test compounds in either inhibiting the release or antagonizing the action of mediators arising from the interaction of reaginic antibodies with specific antigen, mediators which are causative factors in allergic disorders. The details of the test are fully described in U.S. Pat. No. 4,031,093.
The test compounds were solubilized in aqueous sodium bicarbonate and administered intravenously (i.v.) or per os (p.o.) either one or ten minutes, respectively, prior to antigen challenge. Disodium cromoglycate (DSCG), solubilized in saline, was administered i.v. at the time of challenge and p.o 30 minutes prior to challenge.

[3] = test system: release of mediators, e.g. histamine and SRS-A; settings: administered to asthmatic patients prior to inhalation of specific antigens; cited from earlier work
[4] = must be administered by inhalation; cited from earlier work
[5] = po, in aqueous sodium bicarbonate, ten minutes prior to antigen challenge, read-out: ID50 p.o. (dose of compound that inhibits 50% of the response)

CC(C)NCC(O)c1ccc(O)c(O)c1 (stereo not shown) [isoproterenol]
side effects ([1]; treatment of bronchial asthma): cardiac stimulation and gastrointestinal distress

CN1[C@@H]2CC[C@H]1C[C@@H](OC(=O)C(CO)c1ccccc1)C2 (stereo partly shown) [atropine]
side effects ([1]; treatment of bronchial asthma): cardiac stimulation and gastrointestinal distress

Cn1c(=O)c2[nH]cnc2n(C)c1=O [theophylline]
side effects ([1]; in vivo): cardiac stimulation and gastrointestinal distress

CNC[C@H](O)c1ccc(O)c(O)c1 [epinephrine]
side effects ([1]; treatment of bronchial asthma): cardiac stimulation and gastrointestinal distress

CCc1cccn2c(=O)c(C(=O)Nc3nnn[nH]3)cnc12 [Example 3, 9-Ethyl-4-oxo-4H-pyrido[1,2-a]pyrimidine-3-N-(1H-tetrazol-5-yl)carboxamide]
ED50 [2, 5]: 0.1 mg/kg

O=C(O)c1cc(=O)c2c(OCC(O)COc3cccc4oc(C(=O)O)cc(=O)c34)cccc2o1 [DSCG, Disodium cromoglycate]
ED50 ([2]; iv, DSCG, i.v., in saline, at the time of challenge, read-out: ID50 i.v. (dose of compound that inhibits 50% of the response)): 0.6 mg/kg
ED50 ([2]; po, DSCG, p.o., in saline, 30 minutes prior to challenge, read-out: ID50 p.o. (dose of compound that inhibits 50% of the response)): > 30 mg/kg
inhibition of release of mediators (histamine, SRS-A) [3]: inhibits the release of mediators
oral absorption [4]: not orally absorbed
side effects ([1]; in vivo): without cardiovascular side effects

Cc1cccn2c(=O)c(C(=O)Nc3nnn[nH]3)cnc12 [Example 2, 9-Methyl-4-oxo-4H-pyrido[1,2-a]pyrimidine-3-N-(1H-tetrazol-5-yl)carboxamide]
ED50 ([2]; iv, in aqueous sodium bicarbonate, one minute prior to antigen challenge, read-out: ID50 i.v. (dose of compound that inhibits 50% of the response)): 0.04 mg/kg
ED50 [2, 5]: 0.1 mg/kg

O=C(Nc1nnn[nH]1)c1cnc2ccccn2c1=O [Example 1, 4-Oxo-4H-pyrido[1,2-a]pyrimidine-3-N-(1H-tetrazol-5-yl)carboxamide]
ED50 [2, 5]: 0.2 mg/kg
